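Results reflect a 48-hour exposure of cells in 96-well plates to compound at five concentrations. Here, GI50 denotes the concentration required for 50% inhibition of growth.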 Active and inactive are the calls of the source. Rule as the data show it: active = GI50 up to about 1.1 µM and inactive = higher.
Assays:
Experiment in all cases: growth of human tumour cells (NCI), 48 h
SW-620 = tested on: SW-620
DMS-114 = tested on: DMS-114
HL-60 = tested on: HL-60
A498 = tested on: A498
SK-OV-3 = tested on: SK-OV-3
XF498 = tested on: XF498
KM12 = tested on: KM12
OVCAR-3 = tested on: OVCAR-3
OVCAR-4 = tested on: OVCAR-4
RXF 393 = tested on: RXF 393
LOX IMVI = tested on: LOX IMVI
HCT-15 = tested on: HCT-15
EKVX = tested on: EKVX
HOP-92 = tested on: HOP-92
SF-539 = tested on: SF-539
SR = tested on: SR
DMS-273 = tested on: DMS-273
IGROV-1 = tested on: IGROV-1
HCT-116 = tested on: HCT-116
OVCAR-5 = tested on: OVCAR-5
U-251 = tested on: U-251
COLO 205 = tested on: COLO 205
HCC 2998 = tested on: HCC 2998
TK-10 = tested on: TK-10
CCRF-CEM = tested on: CCRF-CEM
HT-29 = tested on: HT-29
ACHN = tested on: ACHN
Malme-3M = tested on: Malme-3M
SF-295 = tested on: SF-295
UACC-257 = tested on: UACC-257
DLD-1 = tested on: DLD-1
A549 = tested on: A549
SNB-19 = tested on: SNB-19
MOLT-4 = tested on: MOLT-4
SNB-75 = tested on: SNB-75
NCI-H226 = tested on: NCI-H226
SNB-78 = tested on: SNB-78
NCI-H23 = tested on: NCI-H23
SK-MEL-5 = tested on: SK-MEL-5
HOP-18 = tested on: HOP-18
UO-31 = tested on: UO-31
NCI-H522 = tested on: NCI-H522
K562 = tested on: K562
UACC-62 = tested on: UACC-62
SK-MEL-28 = tested on: SK-MEL-28
CAKI-1 = tested on: CAKI-1
M19-MEL = tested on: M19-MEL
RPMI-8226 = tested on: RPMI-8226
OVCAR-8 = tested on: OVCAR-8
SN12C = tested on: SN12C
M14 = tested on: M14
786-0 = tested on: 786-0
NCI-H460 = tested on: NCI-H460
HOP-62 = tested on: HOP-62
SF-268 = tested on: SF-268
KM-20L2 = tested on: KM-20L2
LXFL 529 = tested on: LXFL 529
SK-MEL-2 = tested on: SK-MEL-2
RXF 631 = tested on: RXF 631

Compound: [N-]=[N+]=C1C(=O)C2CC3CC(C2)CC1C3
- GI50 (SW-620): 64 µM (inactive)
- GI50 (DMS-114): > 100 µM (inactive)
- GI50 (HL-60): > 100 µM (inactive)
- GI50 (A498): > 100 µM (inactive)
- GI50 (SK-OV-3): > 100 µM (inactive)
- GI50 (XF498): > 100 µM (inactive)
- GI50 (KM12): > 100 µM (inactive)
- GI50 (OVCAR-3): > 100 µM (inactive)
- GI50 (OVCAR-4): > 100 µM (inactive)
- GI50 (RXF 393): > 100 µM (inactive)
- GI50 (LOX IMVI): > 100 µM (inactive)
- GI50 (HCT-15): > 100 µM
- GI50 (EKVX): > 100 µM (inactive)
- GI50 (HOP-92): > 100 µM (inactive)
- GI50 (SF-539): > 100 µM (inactive)
- GI50 (SR): > 100 µM (inactive)
- GI50 (DMS-273): > 100 µM (inactive)
- GI50 (IGROV-1): > 100 µM (inactive)
- GI50 (HCT-116): > 100 µM (inactive)
- GI50 (OVCAR-5): > 100 µM (inactive)
- GI50 (U-251): > 100 µM (inactive)
- GI50 (COLO 205): > 100 µM (inactive)
- GI50 (HCC 2998): > 100 µM (inactive)
- GI50 (TK-10): > 100 µM (inactive)
- GI50 (CCRF-CEM): > 100 µM (inactive)
- GI50 (HT-29): > 100 µM (inactive)
- GI50 (ACHN): > 100 µM (inactive)
- GI50 (Malme-3M): > 100 µM (inactive)
- GI50 (SF-295): > 100 µM (inactive)
- GI50 (UACC-257): > 100 µM (inactive)
- GI50 (DLD-1): > 100 µM (inactive)
- GI50 (A549): > 100 µM (inactive)
- GI50 (SNB-19): > 100 µM (inactive)
- GI50 (MOLT-4): > 100 µM (inactive)
- GI50 (SNB-75): > 100 µM (inactive)
- GI50 (NCI-H226): > 100 µM (inactive)
- GI50 (SNB-78): > 100 µM (inactive)
- GI50 (NCI-H23): > 100 µM (inactive)
- GI50 (SK-MEL-5): > 100 µM (inactive)
- GI50 (HOP-18): > 100 µM (inactive)
- GI50 (UO-31): > 100 µM (inactive)
- GI50 (NCI-H522): > 100 µM (inactive)
- GI50 (K562): > 100 µM (inactive)
- GI50 (UACC-62): > 100 µM (inactive)
- GI50 (SK-MEL-28): > 100 µM (inactive)
- GI50 (CAKI-1): > 100 µM (inactive)
- GI50 (M19-MEL): > 100 µM (inactive)
- GI50 (RPMI-8226): > 100 µM (inactive)
- GI50 (OVCAR-8): > 100 µM (inactive)
- GI50 (SN12C): > 100 µM (inactive)
- GI50 (M14): > 100 µM (inactive)
- GI50 (786-0): > 100 µM (inactive)
- GI50 (NCI-H460): > 100 µM (inactive)
- GI50 (HOP-62): > 100 µM (inactive)
- GI50 (SF-268): > 100 µM (inactive)
- GI50 (KM-20L2): > 100 µM (inactive)
- GI50 (LXFL 529): > 100 µM (inactive)
- GI50 (SK-MEL-2): > 100 µM (inactive)

Compound: O=c1c2ccccc2nc(-c2ccccc2Cl)n1NCC1(O)OCC(O)C(O)C1O (stereo not given)
- GI50 (SW-620): > 100 µM (inactive)
- GI50 (DMS-114): > 100 µM (inactive)
- GI50 (HL-60): > 100 µM (inactive)
- GI50 (A498): > 100 µM (inactive)
- GI50 (SK-OV-3): > 100 µM (inactive)
- GI50 (XF498): > 100 µM (inactive)
- GI50 (KM12): > 100 µM (inactive)
- GI50 (OVCAR-3): > 100 µM (inactive)
- GI50 (OVCAR-4): > 100 µM (inactive)
- GI50 (RXF 393): > 100 µM (inactive)
- GI50 (LOX IMVI): > 100 µM (inactive)
- GI50 (HCT-15): > 100 µM
- GI50 (EKVX): > 100 µM (inactive)
- GI50 (SF-539): > 100 µM (inactive)
- GI50 (SR): > 100 µM (inactive)
- GI50 (DMS-273): > 100 µM (inactive)
- GI50 (HCT-116): > 100 µM (inactive)
- GI50 (OVCAR-5): > 100 µM (inactive)
- GI50 (U-251): > 100 µM (inactive)
- GI50 (COLO 205): > 100 µM (inactive)
- GI50 (TK-10): > 100 µM (inactive)
- GI50 (CCRF-CEM): > 100 µM (inactive)
- GI50 (HT-29): > 100 µM (inactive)
- GI50 (ACHN): > 100 µM (inactive)
- GI50 (Malme-3M): > 100 µM (inactive)
- GI50 (SF-295): > 100 µM (inactive)
- GI50 (RXF 631): > 100 µM (inactive)
- GI50 (UACC-257): > 100 µM (inactive)
- GI50 (A549): > 100 µM (inactive)
- GI50 (SNB-19): > 100 µM (inactive)
- GI50 (MOLT-4): > 100 µM (inactive)
- GI50 (SNB-75): 62.2 µM (inactive)
- GI50 (SNB-78): > 100 µM (inactive)
- GI50 (NCI-H23): > 100 µM (inactive)
- GI50 (SK-MEL-5): > 100 µM (inactive)
- GI50 (UO-31): > 100 µM (inactive)
- GI50 (NCI-H522): > 100 µM (inactive)
- GI50 (K562): > 100 µM (inactive)
- GI50 (UACC-62): > 100 µM (inactive)
- GI50 (SK-MEL-28): > 100 µM (inactive)
- GI50 (CAKI-1): > 100 µM (inactive)
- GI50 (M19-MEL): > 100 µM (inactive)
- GI50 (RPMI-8226): > 100 µM (inactive)
- GI50 (OVCAR-8): > 100 µM (inactive)
- GI50 (SN12C): > 100 µM (inactive)
- GI50 (M14): > 100 µM (inactive)
- GI50 (786-0): > 100 µM (inactive)
- GI50 (NCI-H460): > 100 µM (inactive)
- GI50 (SF-268): > 100 µM (inactive)
- GI50 (KM-20L2): > 100 µM (inactive)
- GI50 (LXFL 529): > 100 µM (inactive)
- GI50 (SK-MEL-2): > 100 µM (inactive)

From ChEMBL document CHEMBL1201862, “PubChem BioAssay data set” (2004)
